ChEMBL document CHEMBL1155788, “Bis(sulfonamide) isosters of mycophenolic adenine dinucleotide analogues: inhibition of inosine monophosphate dehydrogenase” (Bioorg Med Chem, 2008)

Columns and labels:
[1] = biological target: Inosine-5'-monophosphate dehydrogenase 1 (Homo sapiens, UniProt P20839); test: Inhibition of human IMP dehydrogenase 1
[2] = biological target: Inosine-5'-monophosphate dehydrogenase 2 (Homo sapiens, UniProt P12268); test: Inhibition of human IMP dehydrogenase 2
[3] = Inhibition of IMP dehydrogenase

Inosine-5'-monophosphate dehydrogenase 1, sequence (P20839 whole entry): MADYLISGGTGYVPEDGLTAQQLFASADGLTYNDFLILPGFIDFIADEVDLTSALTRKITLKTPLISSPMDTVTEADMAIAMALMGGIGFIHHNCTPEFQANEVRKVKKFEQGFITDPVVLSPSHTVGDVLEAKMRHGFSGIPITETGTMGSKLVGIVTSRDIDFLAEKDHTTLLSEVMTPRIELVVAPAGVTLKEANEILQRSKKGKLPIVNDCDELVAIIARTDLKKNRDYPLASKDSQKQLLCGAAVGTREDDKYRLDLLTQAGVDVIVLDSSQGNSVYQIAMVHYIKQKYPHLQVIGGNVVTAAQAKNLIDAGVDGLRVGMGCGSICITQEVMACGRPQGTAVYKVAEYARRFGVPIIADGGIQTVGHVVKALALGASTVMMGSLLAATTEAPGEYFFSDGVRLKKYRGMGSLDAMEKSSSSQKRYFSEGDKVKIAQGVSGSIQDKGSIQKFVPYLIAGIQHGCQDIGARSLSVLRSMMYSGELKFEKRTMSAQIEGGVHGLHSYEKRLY

SMILES	IC50 [1] [nM]	Ki [1] [nM]	Ki [2] [nM]	Ki [3] [nM]
COc1c(C)c2c(c(O)c1CCO)C(=O)OC2	–	15400	3000	–
COc1c(C)c2c(c(O)c1CCOP(=O)(O)CP(=O)(O)OC[C@H]1O[C@@H](n3cnc4c(N)nc(-c5ccccc5)nc43)[C@H](O)[C@@H]1O)C(=O)OC2	–	70	–	–
CCc1nc(N)c2ncn([C@@H]3O[C@H](CNS(=O)(=O)CS(=O)(=O)NCCc4c(O)c5c(c(C)c4OC)COC5=O)[C@@H](O)[C@H]3O)c2n1	–	820	440	–
NC(=O)c1csc([C@@H]2O[C@H](CO)[C@@H](O)[C@H]2O)n1 [TIAZOFURIN]	–	–	–	100
COc1c(C)c2c(c(O)c1CCNS(=O)(=O)CS(=O)(=O)NC[C@H]1O[C@@H](n3cnc4c(N)nc(-c5ccccc5)nc43)[C@H](O)[C@@H]1O)C(=O)OC2	–	660	310	–
C#Cc1nc(N)c2ncn([C@@H]3O[C@H](CNS(=O)(=O)CS(=O)(=O)NCCc4c(O)c5c(c(C)c4OC)COC5=O)[C@@H](O)[C@H]3O)c2n1	–	520	180	–
Nc1ncnc2c1ncn2[C@@H]1O[C@H](CO)[C@@H](O)[C@H]1O [ADENOSINE]	–	> 100000	> 100000	–
COc1c(C)c2c(c(O)c1CCNS(=O)(=O)CS(N)(=O)=O)C(=O)OC2 [MYCOPHENOLIC BIS(SULFONAMIDE)]	–	18200	4000	–

Further lines, results first:

IC50 [1] [nM]	Ki [1] [nM]	Ki [2] [nM]	Ki [3] [nM]	SMILES
23600	–	–	–	NC(=O)c1csc([C@@H]2O[C@H](CNS(=O)(=O)CS(=O)(=O)NC[C@H]3O[C@@H](n4cnc5c(N)ncnc54)[C@H](O)[C@@H]3O)[C@@H](O)[C@H]2O)n1
–	–	–	40	NC(=O)c1c[se]c([C@@H]2O[C@H](COP(=O)(O)OP(=O)(O)OC[C@H]3O[C@@H](n4cnc5c(N)ncnc54)[C@H](O)[C@@H]3O)[C@@H](O)[C@H]2O)n1
–	> 100000	> 100000	–	Nc1ncnc2c1ncn2[C@@H]1O[C@H](CNS(=O)(=O)CS(N)(=O)=O)[C@@H](O)[C@H]1O
–	–	–	100	NC(=O)c1csc([C@@H]2O[C@H](COP(=O)(O)OP(=O)(O)OC[C@H]3O[C@@H](n4cnc5c(N)ncnc54)[C@H](O)[C@@H]3O)[C@@H](O)[C@H]2O)n1 [TIAZOFURIN ADENINE DINUCLEOTIDE]
